According to patent US5550148A, “PAF synthesis modulators” (ZymoGenetics, Inc., priority 1995, dated 1996):

What was measured:
[1] = target: P59^fyn tyrosine kinase (Homo sapiens, UniProt P06241); assay: inhibition of P59^fyn tyrosine kinase; type: biochemical; details: 0.5% DMSO
Experimental: (§1) Compound 1494 was assayed for a variety of inhibitory activities. […] Displacement of [^3 H]pyrilamine from histamine H1 binding sites (IC50 of about 3 μM) was noted, but may be unrelated to functional receptor agonism or antagonism. Displacement of [3H]dexamethasone from glucocorticoid binding sites (IC50 of about 3 μM) was also observed. Inhibition of the following activities was also detected: […]

[2] = solubility in 0.5% DMSO; type: physicochemical; details: at 0.01, 0.1, 1 and 10 μM
[3] = target: PAF binding sites (Homo sapiens, UniProt P25105); assay: displacement of [^3 H]PAF from PAF binding sites; details: 0.01, 0.1, 1 and 10 μM tested, 0.5% DMSO
Sequence of PAF binding sites (P25105 whole entry): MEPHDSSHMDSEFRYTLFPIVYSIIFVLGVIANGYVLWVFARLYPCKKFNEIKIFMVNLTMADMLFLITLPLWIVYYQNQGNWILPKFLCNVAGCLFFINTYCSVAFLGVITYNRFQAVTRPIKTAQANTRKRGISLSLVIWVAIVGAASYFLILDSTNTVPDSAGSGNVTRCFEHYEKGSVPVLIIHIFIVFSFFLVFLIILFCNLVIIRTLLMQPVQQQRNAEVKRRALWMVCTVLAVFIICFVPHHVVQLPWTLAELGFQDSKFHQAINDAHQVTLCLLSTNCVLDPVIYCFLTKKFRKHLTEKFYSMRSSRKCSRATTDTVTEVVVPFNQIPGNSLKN
Experimental: as §1

[4] = target: Phospholipase A2; assay: inhibition of Phospholipase A2; type: biochemical; details: 0.5% DMSO
Experimental: as §1

[5] = target: histamine H1 binding sites (Homo sapiens, UniProt P35367); assay: displacement of [^3 H]pyrilamine from histamine H1 binding sites; details: 0.01, 0.1, 1 and 10 μM tested, 0.5% DMSO
Sequence of histamine H1 binding sites (P35367 whole entry): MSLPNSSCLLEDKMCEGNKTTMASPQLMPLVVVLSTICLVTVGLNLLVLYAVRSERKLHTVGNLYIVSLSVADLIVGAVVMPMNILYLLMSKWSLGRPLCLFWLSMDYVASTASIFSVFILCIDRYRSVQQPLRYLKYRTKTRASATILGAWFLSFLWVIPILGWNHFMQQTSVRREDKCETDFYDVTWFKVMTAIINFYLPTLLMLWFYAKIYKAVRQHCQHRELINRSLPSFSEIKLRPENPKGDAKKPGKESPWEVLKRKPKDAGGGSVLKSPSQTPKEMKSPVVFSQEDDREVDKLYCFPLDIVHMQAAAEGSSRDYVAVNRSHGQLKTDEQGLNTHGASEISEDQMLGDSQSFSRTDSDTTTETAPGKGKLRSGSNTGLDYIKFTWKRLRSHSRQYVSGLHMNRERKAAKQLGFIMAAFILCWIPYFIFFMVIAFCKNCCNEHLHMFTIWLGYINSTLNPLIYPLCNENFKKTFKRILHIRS
Experimental: as §1

[6] = test system: de novo PAF-acetyltransferase; assay: inhibition of de novo PAF-acetyltransferase (de novo pathway of PAF synthesis); type: biochemical
[7] = test system: B cell; assay: B cell proliferation in the presence of LPS; type: cell-based
[8] = target: P56^lck tyrosine kinase (Homo sapiens, UniProt P06239); assay: inhibition of P56^lck tyrosine kinase; type: biochemical; details: 0.5% DMSO
Sequence of P56^lck tyrosine kinase (P06239 whole entry): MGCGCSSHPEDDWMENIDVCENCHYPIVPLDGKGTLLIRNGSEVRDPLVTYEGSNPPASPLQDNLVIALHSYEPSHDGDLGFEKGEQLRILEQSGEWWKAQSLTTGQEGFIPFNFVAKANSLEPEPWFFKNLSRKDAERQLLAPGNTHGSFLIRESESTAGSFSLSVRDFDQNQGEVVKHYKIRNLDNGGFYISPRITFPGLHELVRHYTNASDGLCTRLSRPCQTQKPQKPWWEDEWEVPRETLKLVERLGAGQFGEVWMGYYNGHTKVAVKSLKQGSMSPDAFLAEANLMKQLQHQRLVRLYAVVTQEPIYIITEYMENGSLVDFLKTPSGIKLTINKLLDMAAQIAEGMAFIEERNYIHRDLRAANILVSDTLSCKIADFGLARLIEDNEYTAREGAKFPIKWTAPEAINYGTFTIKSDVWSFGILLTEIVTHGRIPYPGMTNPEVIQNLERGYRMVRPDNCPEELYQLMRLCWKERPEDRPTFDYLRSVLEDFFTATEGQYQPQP
Experimental: as §1

[9] = test system: T cell; assay: T cell proliferation in the presence of ConA; type: cell-based
[10] = target: Cyclooxygenase; assay: inhibition of Cyclooxygenase; type: biochemical; details: 0.5% DMSO
Experimental: as §1

[11] = target: T1, glucocorticoid binding sites (Homo sapiens, UniProt P04150); assay: displacement of [3H]dexamethasone from glucocorticoid binding sites; details: 0.01, 0.1, 1 and 10 μM tested, 0.5% DMSO
T1 sequence (P04150 1-777): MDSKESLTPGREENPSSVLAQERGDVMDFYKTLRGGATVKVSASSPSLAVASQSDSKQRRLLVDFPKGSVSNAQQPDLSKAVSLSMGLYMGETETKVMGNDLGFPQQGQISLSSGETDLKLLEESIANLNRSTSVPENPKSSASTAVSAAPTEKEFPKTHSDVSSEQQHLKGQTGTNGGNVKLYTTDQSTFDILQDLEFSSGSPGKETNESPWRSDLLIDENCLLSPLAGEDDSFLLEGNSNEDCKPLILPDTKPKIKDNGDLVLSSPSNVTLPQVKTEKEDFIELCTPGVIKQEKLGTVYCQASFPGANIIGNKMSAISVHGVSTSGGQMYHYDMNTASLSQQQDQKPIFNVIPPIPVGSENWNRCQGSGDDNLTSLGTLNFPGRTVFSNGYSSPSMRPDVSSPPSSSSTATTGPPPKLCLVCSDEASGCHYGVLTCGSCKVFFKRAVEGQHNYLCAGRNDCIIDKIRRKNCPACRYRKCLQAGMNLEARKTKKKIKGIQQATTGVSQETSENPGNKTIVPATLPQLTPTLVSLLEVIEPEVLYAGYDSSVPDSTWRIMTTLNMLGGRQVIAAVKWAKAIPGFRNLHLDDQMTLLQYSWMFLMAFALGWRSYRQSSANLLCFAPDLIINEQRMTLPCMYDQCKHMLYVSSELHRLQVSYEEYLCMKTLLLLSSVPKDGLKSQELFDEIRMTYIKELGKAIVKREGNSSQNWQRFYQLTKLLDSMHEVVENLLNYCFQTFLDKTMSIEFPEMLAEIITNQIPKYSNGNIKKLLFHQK
Experimental: as §1

[12] = test system: remodeling PAF-acetyltransferase; assay: inhibition of remodeling PAF-acetyltransferase (remodeling pathway of PAF synthesis); type: biochemical
From the text: A second screening assay detects modulators of the formation of PAF from lyso-PAF and acetyl-CoA by an enzyme termed PAF acetyltransferase. This is the second step in the remodeling pathway of PAF synthesis, described by Wykle, J. Biol. Chem. 255:10256-60, 1980.
The remodeling pathway of PAF synthesis is the pathway involved in pathological processes, such as inflammation, and particularly in neutrophil-mediated processes. The de novo pathway of PAF synthesis is required for normal physiological functions. Therefore, a desirable, anti-inflammatory, therapeutically effective PAF modulator will down-regulate the remodeling pathway, but will have little or no effect on the de novo pathway of PAF synthesis.
Briefly, to assay the remodeling pathway acetyl-transferase, […] of […] bovine serum albumin (fatty acid free; Sigma) in PBS (120 mM NaCl, 2.7 mM KCl, 10 mM phosphate buffer, pH 7.4, supplemented with 10 μM CaCl2) was added to each well of a 96-well, flat-bottom microtiter plate. The plate was incubated for 15 min at ambient temperature, then the wells were aspirated and 50 μl of PBS was added to each well. Duplicate or triplicate test samples in DMSO (≤5% (v/v)) were added to each well.
HL-60 cells (a stable, transformed hematopoietic cell line) were combined with PBS containing 0.05% TWEEN-20 and mixed vigorously at 500 rpm for 30 sec. This treatment permeabilized the HL-60 cells. An aliquot (50 μl) of HL-60 lysate so formed was added to each well of the plate, and the plate was incubated for 5 min at ambient temperature with gentle shaking.
PAF acetyl-transferase substrates were added to each well, such that 25 μl of the following solution was added per well: Lyso-PAF ([…]; Calbiochem, La Jolla, Calif.), acetyl-CoA ([…]; Calbiochem), and ^3 H-acetyl-CoA (25 μCi/ml; Amersham). The plate was gently mixed for 45 sec and then incubated at 37° C. for 20 min.
Newly synthesized PAF was extracted by adding 1.25 mg of AMBERCHROM CG-71 resin (Supelco, Bellefonte, Pa.) in 25 μl of distilled water to each well. The plate was gently shaken for 1 min, following which the resin was collected on a 102 mm×258 mm glass-fiber filter using a MICRO-CELL HARVESTER (Skatron, Waltham, Mass.). The filter was washed with 500 ml water to remove unincorporated ^3 H-acetyl-CoA. Following the wash, the filter was dried in a microwave oven for 5-10 min.
After the filter was dried, it was soaked in 10 ml of Beta Plate scintillation fluid (LKB, Loughborough, England), and bound counts were determined in a TOP COUNT scintillation counter (Pharmacia). Percentage inhibition was determined by dividing the average of 2 or 3 replicate wells by the average of 3 control wells (5% DMSO alone), and multiplying by 100.

[13] = target: EGF tyrosine kinase (Homo sapiens, UniProt P00533); assay: inhibition of EGF tyrosine kinase; type: biochemical; details: 0.5% DMSO
Sequence of EGF tyrosine kinase (P00533 25-1210): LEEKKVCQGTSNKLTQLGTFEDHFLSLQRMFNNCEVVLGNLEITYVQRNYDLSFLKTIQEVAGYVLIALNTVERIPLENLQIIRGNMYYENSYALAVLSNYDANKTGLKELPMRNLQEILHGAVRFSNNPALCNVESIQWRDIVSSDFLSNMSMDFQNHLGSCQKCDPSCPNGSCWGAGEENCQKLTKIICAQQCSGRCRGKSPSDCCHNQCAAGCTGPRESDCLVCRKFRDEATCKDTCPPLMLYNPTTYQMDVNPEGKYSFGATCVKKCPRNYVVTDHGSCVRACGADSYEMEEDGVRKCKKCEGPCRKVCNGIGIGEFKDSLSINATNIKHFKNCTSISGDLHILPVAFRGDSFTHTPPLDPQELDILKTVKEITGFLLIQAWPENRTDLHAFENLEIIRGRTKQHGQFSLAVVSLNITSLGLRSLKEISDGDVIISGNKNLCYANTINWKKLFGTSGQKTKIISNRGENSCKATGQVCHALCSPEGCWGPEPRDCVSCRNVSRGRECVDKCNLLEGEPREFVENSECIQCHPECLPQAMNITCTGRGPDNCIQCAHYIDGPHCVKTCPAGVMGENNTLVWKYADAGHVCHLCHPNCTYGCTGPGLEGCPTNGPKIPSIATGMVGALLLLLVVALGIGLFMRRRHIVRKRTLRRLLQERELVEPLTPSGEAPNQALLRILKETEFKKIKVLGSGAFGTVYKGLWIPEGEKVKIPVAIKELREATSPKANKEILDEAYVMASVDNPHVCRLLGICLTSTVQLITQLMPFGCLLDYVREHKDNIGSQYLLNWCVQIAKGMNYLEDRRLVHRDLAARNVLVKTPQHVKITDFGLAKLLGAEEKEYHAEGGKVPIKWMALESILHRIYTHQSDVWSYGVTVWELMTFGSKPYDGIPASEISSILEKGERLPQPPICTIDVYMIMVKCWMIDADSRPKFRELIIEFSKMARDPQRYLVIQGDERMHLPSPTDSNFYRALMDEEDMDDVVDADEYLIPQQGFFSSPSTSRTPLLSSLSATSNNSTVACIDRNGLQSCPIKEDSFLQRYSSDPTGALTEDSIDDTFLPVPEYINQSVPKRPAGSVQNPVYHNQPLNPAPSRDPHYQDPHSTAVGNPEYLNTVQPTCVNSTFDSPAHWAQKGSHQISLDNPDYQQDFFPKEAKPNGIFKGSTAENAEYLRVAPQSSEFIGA
Experimental: as §1

[14] = target: T2, 5-lipoxygenase (Homo sapiens, UniProt P09917); assay: inhibition of 5-lipoxygenase; type: biochemical; details: 0.5% DMSO
T2 sequence (P09917 1-674): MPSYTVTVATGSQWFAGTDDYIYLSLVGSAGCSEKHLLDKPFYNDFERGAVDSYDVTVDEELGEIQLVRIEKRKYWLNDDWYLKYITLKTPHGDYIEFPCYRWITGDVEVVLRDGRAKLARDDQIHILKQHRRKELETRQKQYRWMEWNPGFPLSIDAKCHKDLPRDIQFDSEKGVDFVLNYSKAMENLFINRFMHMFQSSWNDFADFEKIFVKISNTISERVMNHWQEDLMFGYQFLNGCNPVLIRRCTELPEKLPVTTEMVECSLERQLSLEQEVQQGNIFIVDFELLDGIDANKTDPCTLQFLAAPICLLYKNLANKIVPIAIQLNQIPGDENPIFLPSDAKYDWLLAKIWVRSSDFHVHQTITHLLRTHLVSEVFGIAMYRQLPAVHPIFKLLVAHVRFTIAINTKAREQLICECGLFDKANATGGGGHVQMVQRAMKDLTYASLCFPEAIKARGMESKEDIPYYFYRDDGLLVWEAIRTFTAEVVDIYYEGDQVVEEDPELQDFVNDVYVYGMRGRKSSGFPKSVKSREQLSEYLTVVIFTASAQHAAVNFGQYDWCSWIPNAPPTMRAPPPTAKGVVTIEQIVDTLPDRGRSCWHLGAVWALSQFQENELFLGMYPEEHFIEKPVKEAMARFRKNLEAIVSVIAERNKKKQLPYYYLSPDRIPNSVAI
Experimental: as §1

Sequence of P59^fyn tyrosine kinase (P06241 whole entry): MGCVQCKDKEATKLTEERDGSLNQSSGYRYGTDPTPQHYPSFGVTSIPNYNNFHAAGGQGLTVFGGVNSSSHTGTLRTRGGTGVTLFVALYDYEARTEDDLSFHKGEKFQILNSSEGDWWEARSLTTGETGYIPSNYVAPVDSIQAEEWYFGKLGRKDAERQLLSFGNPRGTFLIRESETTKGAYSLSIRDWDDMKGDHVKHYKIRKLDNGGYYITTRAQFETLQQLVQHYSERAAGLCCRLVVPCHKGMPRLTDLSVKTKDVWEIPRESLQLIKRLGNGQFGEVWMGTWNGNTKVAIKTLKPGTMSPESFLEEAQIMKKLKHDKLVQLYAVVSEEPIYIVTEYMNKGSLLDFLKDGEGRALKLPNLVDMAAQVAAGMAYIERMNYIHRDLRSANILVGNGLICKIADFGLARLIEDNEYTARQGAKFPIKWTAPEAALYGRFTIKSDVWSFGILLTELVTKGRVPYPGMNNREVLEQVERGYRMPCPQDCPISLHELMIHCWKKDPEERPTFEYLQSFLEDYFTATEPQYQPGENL

SMILES | IC50 [1] | solubility [2] | IC50 [3] | IC50 [4] | IC50 [5] | inhibition of de novo PAF-acetyltransferase ([6]; 0.1 to 8.3 μg/well) | B cell proliferation [7] | IC50 [8] | T cell proliferation [9] | IC50 [10] | IC50 [11] | inhibition of remodeling PAF-acetyltransferase ([12]; 0.1 μg/well) | inhibition of remodeling PAF-acetyltransferase ([12]; 8.3 μg/well) | inhibition of remodeling PAF-acetyltransferase ([12]; 25 μg/well) | selectivity for the remodeling pathway of PAF synthesis ([12]; versus de novo PAF-acetyltransferase) | IC50 [13] | IC50 [14] | inhibition of de novo PAF-acetyltransferase ([6]; 0.1 to 25 μg/well) | inhibition of remodeling PAF-acetyltransferase ([12]; 0.9 to 0.1 μg/well)
CCC(C)C=C(C)C1C(C)=CC2(C)CC(C)CCC2C1C(=O)C1=CC(O)(Cc2ccc(O)cc2)NC1=O (centres unmarked) [Compound 1494] | ~3 µM | partial solubility | ~3 µM | ~100 µM | ~3 µM | no significant inhibition | stimulated B cell proliferation | ~3 µM | T cell proliferation | ~300 µM | ~3 µM | about 12% | about 71% | about 65% | selective modulator of the remodeling pathway of PAF synthesis | ~3 µM | ~10 µM |  | 
CCC(C)C=C(C)C1C(C)=CC2(C)CC(C)CC(C)C2C1C(=O)C1=CC(O)(Cc2ccc(O)cc2)NC1=O (centres unmarked) [Compound 2158] |  |  |  |  |  |  |  |  |  |  |  |  |  | 59% |  |  |  | No significant inhibition | 0%
